Assay results published in US20080090278A1, “METHOD FOR ENHANCING STABILITY OF A COMPOSITION COMPRISING SOLUBLE GLUCOSE DEHYDROGENASE (GDH)” (TOYO BOSEKI KABUSHIKI KAISHA, priority 2006, published 2008).

What was measured:
[1] = test system: recombinant FAD-GDH (rAO-FAD-GDH) derived from Aspergillus oryzae; assay: Thermal stabilization effect of stabilizing agents on rAO-FAD-GDH in solution (Examples 3-6); assay type: physicochemical; settings: for thermal stabilization effect on FAD-GDH (in words): 50° C. for 15 minutes, Example 3
Protocol: Enhancement of the thermal stability referred to herein means increasing of a residual ratio (%) of the GDH enzyme kept after giving the treatment with heat at a certain temperature for a certain time period to the composition comprising the GDH enzyme. In the present invention, the activity in the sample stored at 4° C. which is nearly completely kept is made 100%, this is compared with the activity in the GDH solution after giving the treatment with heat at a certain-temperature for a certain time period, and the residual ratio of the enzyme is calculated.
In the method for measuring the activity described in the method for measuring the GDH enzyme activity described later, an activity value (a) of GDH in the solution stored at 4° C. and an activity value (b) of GDH after giving the treatment with heat at a certain temperature for a certain time period were measured, a relative value[(b)/(a)×100] when the activity value (a) was made 100 was calculated. This relative value was made the residual ratio (%). Comparing the presence with the absence of the added compound, when the residual ratio was increased by the addition of the compound, it was determined that the thermal stability was enhanced.
In the present invention, the activity of FAD-dependent GDH is measured as follows.
The reaction-reagent is made by mixing 15.6 mL of the PIPES buffer, 0.2 mL of the DCPIP solution and 4 mL of the D-glucose solution.
(§1) The reaction reagent (3 mL) is preliminarily heated at 37° C. for 5 minutes. The GDH solution (0.1 mL) is added and gently mixed, subsequently the change of absorbance at 600 nm is recorded for 5 minutes using the spectrophotometer controlled to 37° C. using water as the control, and the change of absorbance per one minute (ΔODTEST) is calculated from the linear portion of the record. The solvent in which GDH will be dissolved in place of the blinded GDH solution is added to the reagent mixture, and the change of absorbance (ΔODBLANK) per one minute is measured. The GDH activity is calculated from these values according to the following formula. One unit (U) in the GDH activity is defined as the amount of the enzyme which reduces […] DCPIP for one minute in the presence of 200 mM D-glucose. Activity (U/mL)=[−(ΔODTEST−ΔODBLANK)×3.0×dilution scale]/(16.3×0.1×1.0) In the above formula, 3.0 represents a liquid amount (mL) of the reaction reagent+the enzyme solution, 16.3 represents a millimolar molecular absorbance coefficient (cm^2/μmol) in the condition for measuring this enzyme, 0.1 represents the liquid amount of the enzyme solution (mL) and 1.0 represents a light path length (cm) of the cell.
The study was performed in accordance with the method for measuring the FAD-GDH activity in Test Example 1 described above.
First, 50 mL of an enzyme solution obtained by dissolving the recombinant FAD-GDH (rAO-FAD-GDH)-derived from Aspergillus oryzae obtained in Example 1 at about 2 U/mL in an enzyme dilution solution (50 mM potassium phosphate buffer, pH 5.5, 0.1% Triton X-100) was prepared. Two tubes in which each stabilizing agent described in Table 1 had been added at each final concentration to 0.9 mL of this enzyme solution to make the total volume 1.0 mL were prepared.
(§2) In two tubes, one tube was stored at −4° C. and another tube was treated at 50° C. for 15 minutes. Then, the FAD-GDH activity in each tube was measured. The enzyme activity in the tube stored at 4° C. was made 100, and comparing with it, the activity value after being treated at 50° C. for 15 minutes was calculated as the residual activity ratio (%).
The method was in accordance with Example 3 described above.
The methods were in accordance with Example 3 above.

[2] = test system: recombinant FAD-GDH (rAT-FAD-GDH) derived from Aspergillus terreus; assay: Thermal stabilization effect of stabilizing agents on rAT-FAD-GDH in solution (Example 9); assay type: physicochemical; settings: for Residual activity ratio (%) / GLD activity value (U/ml) 50° C., 15 min: Table 10, buffer 50 mM K-PB, stabilizer at each final concentration described in Table 1; for Residual activity ratio (%): 50° C., 15 min versus 4° C.; for thermal stabilization effect on FAD-GDH (in words): rAT-FAD-GDH, 50° C. for 15 minutes, Example 9
Protocol: as §1, with “D-glucose.” for “D-glucose. Activity (U/mL)=[−(ΔODTEST−ΔODBLANK)×3.0×dilution scale]/(16.3×0.1×1.0) In the above formula, 3.0 represents a liquid amount (mL) of the reaction reagent+the enzyme solution, 16.3 represents a millimolar molecular absorbance coefficient (cm^2/μmol) in the condition for measuring this enzyme, 0.1 represents the liquid amount of the enzyme solution (mL) and 1.0 represents a light path length (cm) of the cell.”
Two tubes in which each stabilizing agent described in Table 1 had been added at each final concentration to 0.9 mL of this enzyme solution to make the total volume 1.0 mL were prepared.
as §2, with “4°” for “−4°”

[3] = stabilizer final concentration 1%, rAO-FAD-GDH about 2 U/mL, 50 mM potassium phosphate buffer pH 5.5, 0.1% Triton X-100, 4° C. sample = 100

Row | Compound | Residual activity ratio (%) after treatment at 50° C., 15 min ([1]; stabilizer final concentration 0.10%, rAO-FAD-GDH, pH 5.5) | Residual activity ratio (%) [2] | GLD activity value (U/ml) 50° C., 15 min [2] | thermal stabilization effect on FAD-GDH (in words) ([1]; rAO-FAD-GDH) | Residual activity ratio (%) after treatment at 50° C., 15 min [1, 3] | thermal stabilization effect on FAD-GDH (in words) [2] | Residual activity ratio (%) after treatment at 50° C., 15 min ([1]; stabilizer final concentration 0.25%, rAO-FAD-GDH, pH 5.5)
1 | N[C@@H](Cc1c[nH]c2ccccc12)C(=O)O [L-triptophan] | 24.3% | 1.3% | 0.034 U/ml | – | – | – | –
2 | OC[C@@H](O)[C@H]1OC[C@H](O)[C@H]1O [1,4-sorbitane] | – | 2.5% | 0.072 U/ml | high effect | 26.7% | high effect | –
3 | O=C[C@H](O)[C@@H](O)[C@@H](O)[C@H](O)CO [Galactose] | – | 17.2% | 0.495 U/ml | high effect | 60.6% | high effect | –
4 | O=C(CO)[C@@H](O)[C@H](O)[C@H](O)CO [D-(−)-fructose] | – | 2.7% | 0.075 U/ml | high effect | 25.9% | high effect | –
5 | N[C@@H](Cc1ccccc1)C(=O)O [phenylalanine] | – | – | – | high effect | – | high effect | –
6 | O=C(O)[C@@H]1CCCN1 [L-(−)-proline] | – | 1.8% | 0.048 U/ml | – | 25.2% | – | –
7 | O=C(O)CCC(=O)O [Succinic acid] | – | – | – | high effect | – | high effect | –
8 | N=C(N)NCCC[C@H](N)C(=O)O [L-arginine] | – | 0.1% | 0.001 U/ml | – | 1.1% | – | –
9 | NC(=O)CC[C@H](N)C(=O)O [L-glutamine] | – | 1.7% | 0.046 U/ml | – | – | – | 22.6%
10 | [Cl-].[Na+] [Sodium chloride] | – | – | – | high effect | – | high effect | –
11 | Inulin | – | 1.8% | 0.053 U/ml | – | 24.7% | – | –
12 | O=CC[C@@H](O)[C@H](O)[C@H](O)CO [2-deoxy-D-glucose] | – | 36.9% | 1.032 U/ml | high effect | 69.6% | high effect | –
13 | C[C@H](N)C(=O)O [D-a-alanine] | – | 3.2% | 0.09 U/ml | high effect | 27.1% | high effect | –
